One experiment relates to Rap1. Description: Rap1 activation in washed platelets (Rap1-GTP pull-down, Western blot). As to conditions: 25 μM 12-HETrE, PAR4-AP stimulated, vs vehicle. It is filed as cell-based, mouse. The procedure:
Following 1 minute of stimulation platelets were lysed with 2× platelet lysis buffer (100 mM Tris HCl, pH 7.4, 150 mM NaCl, 2% IGEPAL, 1% sodium deoxycholate, and 0.05% SDS) containing protease and phosphatase inhibitors. The cytoskeleton was pelleted by centrifugation at 14000×g for 7 minutes at 4° C. Active Rap1 was selectively captured from the supernatant by incubating GST-tagged Rap1 binding domain of RalGDS conjugated to glutathione sepharose beads for one hour on a nutator at 4° C. The beads were then washed 5 times with IP buffer and resuspended in 2× Laemmeli reducing buffer (62.5 mM Tris-HCl, pH 6.8, 2% SDS, 25% glycerol, 0.01% bromophenol blue, 5% β-mercaptoethanol). The samples were boiled for 10 minutes and then loaded onto a 10% SDS-polyacrylamide gel electrophoresis (PAGE) gel. Western blots were performed using a Rap1 antibody and quantified with a LI-COR imager.
(In western blotting, separated proteins are transferred to a membrane and probed.)

The test system of experiment [1] is thrombus formation (platelet and fibrin) in cremaster arterioles. Description: Laser-induced cremaster arteriole thrombosis model. It is filed as in vivo, mouse. On the procedure:
Wild type (WT) or 12-LOX^−/− mice (12 weeks of age) were anesthetized by intraperitoneal injection of ketamine/xylazine (100 mg/kg) prior to the exposure of the cremaster muscle arterioles under a dissecting microscope with constant perfusion of preheated bicarbonate-buffered saline (Reheman et al., J Thromb Haemost 3:875-883, 2005; Reheman et al., Blood 113:1809-1817, 2009; Wang et al., J Clin Invest 124:4281-4293, 2014). Anti-platelet (DyLight 488 anti-GPIb, 1 μg/g) and anti-fibrin (Alexa Fluor 647, 0.3 μg/g) antibodies were administered via jugular vein catheter prior to intravital microscopy. DGLA (50 mg/kg) or DMSO (vehicle control) were dissolved in a formulation of 5% DMSO and 45% PEG300 in sterile 1×PBS and then intravenously injected into mice 10 minutes prior to induction of thrombosis. 12(S)-HETrE (6 mg/kg) or equal volume of DMSO (vehicle control) was also intravenously injected into mice 10 minutes prior to induction of thrombosis. Multiple independent thrombi were induced in the arterioles (30-50 μm diameter) in each mouse by a laser ablation system (Ablate! photoablation system; Intelligent Imaging Innovations, Denver, Colo., USA). Images of thrombus formation were acquired in real-time under 63× water-immersion objective with a Zeiss Axio Examiner Z1 fluorescent microscope equipped with solid laser launch system (LaserStack; Intelligent Imaging Innovations) and high-speed sCMOS camera. All captured images were analyzed on Slidebook (Intelligent Imaging Innovations Inc., Denver, Colo., USA).

Another experiment deals with Gαs. Description: [35S]GTPγS binding to immunoprecipitated Gαs, platelet membranes. It is filed as biochemical. As to conditions: 25 μM; human platelet membranes; vs DMSO. The procedure:
PRP was isolated from whole blood as described above and then incubated with 1 mM aspirin for 1 hour at 37° C. Platelets were pelleted at 2000 g for 10 min in the presence of 10×ACD and apyrase. The pelleted platelets were washed with Tyrode's and centrifuged at 2000×g with 10×ACD for 10 min at room temperature. The platelets were flash frozen with liquid nitrogen and then resuspended in cold detergent-free TME buffer (50 mM Tris-HCl, pH 7.5, 20 mM MgCl2, 2 mM EDTA, and 100 mM NaCl) with 1 μM GDP and protease and phosphatase inhibitors to lyse the platelets. The lysed platelets were centrifuged at 1500 g at 4° C. for 5 min. The supernatant was collected and centrifuged at 100,000×g for 30 min at 4° C. The pelleted membranes were resuspended in TME buffer with 1 μM GDP and stored at −80° C. prior to use. Fatty acid metabolites, agonists, or DMSO and [^35S]GTPγS (10 nM) were added to platelet membranes (60 μg/reaction) on ice, and the tubes were immediately transferred to a 30° C. water bath shaker for 20 min. The reaction was terminated by the addition of ice-cold IP buffer (50 mM Tris-HCl, pH 7.5, 20 mM MgCl2, 150 mM NaCl, 0.5% Nonidet P-40, 0.33% aprotinin, 0.1 mM GDP, and 0.1 mM GTP). The samples were pre-cleared with Protein A agarose beads and normal rabbit IgG for 30 min on a nutator at 4° C. and then aliquoted equally into two tubes containing either normal rabbit IgG or a Gs antibody that had been conjugated to Protein A agarose beads. The samples were incubated on a nutator for 1 hr at 4° C. and washed 4 times with IP buffer and 1 time in TME buffer. The samples were boiled in 0.5% SDS for 30 sec, and the supernatants were collected following brief centrifugation. The supernatants were analyzed in 8 mL of scintillation fluid. The background counts for the normal rabbit IgG (50-200 cpm) for each sample were subtracted from the anti-Gs immunoprecipitated samples prior to analyzing the data.

The mark [2] stands for this setting: WT mice, 6 mg/kg i.v. 10 min before laser injury, vs vehicle.

For `CCCCC/C=C\C[C@H](O)/C=C/C=C\CCCCCCC(=O)O` [12(S)-HETrE, 12(S)-hydroxy-8Z,10E,14Z-eicosatrienoic acid], the “Rap1 activation (Rap1-GTP)” value in the experiment on Rap1 (12-LOX−/− mouse platelets) is “suppressed Rap1 activation”. Also, the “Rap1 activation (Rap1-GTP)” value with Rap1 (WT mouse platelets) is listed as “suppressed Rap1 activation”. Moreover, the platelet accumulation entry in experiment [1] (12-LOX−/− mice, 6 mg/kg i.v., vs 12-LOX−/− alone) is recorded as “significant inhibition of platelet accumulation”. Further, the fibrin accumulation result in experiment [1] (12-LOX−/− mice, 6 mg/kg i.v., vs vehicle) was “no difference in fibrin accumulation”. Moreover, in experiment [1] (setting [2]), the “thrombus size and stability by fibrin accumulation” value is “significantly smaller and less stable thrombi”; the “thrombus size and stability by platelet accumulation” value was “significantly smaller and less stable thrombi”. For the same molecule, in the experiment on Gαs, the “[35S]GTPγS binding to immunoprecipitated Gαs” value was “significant increase in [^35S]GTPγS binding”.

The record behind these values is patent US11111222B2, “Hydroxyeicosatrienoic acid compounds and their use as therapeutic agents” (THE REGENTS OF THE UNIVERSITY OF MICHIGAN, priority 2016, dated 2021).
